Reference: patent US9415023B2, “Compositions comprising terpene compounds for treating negative sensory phenomena” (NeuroQuest Inc., priority 2008, dated 2016)
Entries after “also recorded” stand apart in the source; their conditions may differ.

How the values were obtained:
[1] = Subject-reported relief of numbness and pain after topical application (case studies); type: in vivo, human
Description: (§1) A natural blend of geranium oil and other essential oils (Table 1) was also tested in a panel of human neuropathic pain sufferers, some of whom experienced negative sensory phenomena. […] The geranium oil blend or geraniol was topically applied in therapeutically effective amounts to areas of the human body affected with symptoms of negative sensory symptoms. Dosage amount depended on the size of the patient's affected areas. […] Once administered, a typical positive response was reported typically within minutes.

cortical neuron = test: Perforated patch clamp electrophysiology of mouse brain slices; type: cell-based; conditions: for membrane current (current-voltage relation): geraniol vs. control
Description: Studies were conducted on mouse hippocampal brain slice preparations. In terms of the slice preparations, […] coronal brain slices were prepared from animals housed in a 12 hour light (ZT 0-12):12 hour dark (ZT 12-24) environment. Animals were anesthetized with isoflurane, decapitated, the brain rapidly removed and placed in ice cold, oxygenated (95% 02:5% C02), bicarbonate-buffered artificial cerebral spinal fluid (ACSF). A 1 cm^2 block of brain tissue containing the hippocampi was glued to a cutting surface and coronal slices were prepared using a Leica VT1000S microtome (Leica Microsystems). All slices were left to equilibrate for approximately one hour prior to the transfer to a recording chamber. Once transferred to the chamber, slices were continuously superfused with oxygenated ACSF at a rate of 3 ml/min @30° C. and recordings are generally made for the next 6-12 hours. Patch microelectrodes (5-8 MΩ) made from borosilicate glass (Garner Glass Co.) and filled with K^+ based internal patch solution composed of: (in mM) 120 K-acetate, 40 HEPES, 10 EGTA, 6 MgCl2, nystatin (450 μg/ml) or gramicidin B (5 μg/ml) and pluronic acid F127.
The perforated patch recording technique and will be used (Korn & Horn, 1989) and viable Hippocampal neurons were visually targeted using Infrared Differential Interference Contrast (IR-DIC) microscopy using a Leica DM LFSA scope. […] Recordings were made from 3 different patch rigs equipped with either […] patch clamp amplifiers interfaced via a Digidata 1322A to a PC computer or on, in terms of the studies performed on dissociated DRG neurons, a Zeiss Axoscop 200 inverted microscope equipped with an Axopatch 200B/Digidata 1322A using Pclamp 9.0 and Axoscope 9 software.
Test compounds were bath-applied by superfusion to examine for changes in excitability and/or attenuation of ion channels and the effects of compounds on evoked synaptic responses. Stimulating electrodes (concentric or bipolar) were placed within the slices and in accordance with the well known fiber tract pathways of passage for the DH and the hippocampus.

[2] = Nylon filament test of sensation after topical application (case studies); type: in vivo, human
Description: as §1
7, 2008 and complained of numbness on the soles of their feet. Their sensation was tested with a nylon filament and the patient could not feel the filament on the ball of either foot. Geraniol was applied to the ball of one foot. After approximately 5 minutes the feet were retested with the nylon filament. The foot that had not been treated still could not detect the touch of the filament.
They could not feel a nylon filament used to test sensation on the bottom of either foot. They had geraniol applied to the left foot and the sensation was retested after 5 minutes. […] The patient was given geraniol to use on the left foot every other day.

Compound: CC(C)=CCC/C(C)=C/CO [geraniol, 2,6-Octadien-1-ol, 3,7-dimethyl-, (2E)-]
- numbness / negative sensory phenomena, subject-reported [1]: improvements seen in subjectively reported symptoms
- action potentials during current-voltage steps (cortical neuron; 10 mV steps (250 ms) from -110 to -20 mV, in presence of compound): inhibition of action potentials
- membrane current (current-voltage relation) (cortical neuron; 10 mV steps (250 ms) from -110 to -20 mV): reduction in the membrane current amplitude; also recorded: reduction of membrane currents
- membrane current (current-voltage relation) (cortical neuron; 10 mV steps (250 ms) from -110 to -20 mV, listed as Geraniol): reduction of membrane currents
- action potential following depolarizing current pulse (cortical neuron; depolarizing current pulse of 0.4 nA): inhibition of action potential
- net current reduction (current differential between control and tested compound) (cortical neuron; most negative voltage step (-110 mV), FIG. 3, ranking among samples): greatest inhibition
- feeling in treated foot vs untreated foot ([2]; topical every other day, over 2 week period): continued to have more feeling than the right foot
- sensation tested with nylon filament on treated foot ([2]; topical, retested after approximately 5 minutes, untreated foot as comparison): improvements in sensory functioning; also recorded: able to feel the nylon filament; also recorded: could detect feeling with a nylon filament
